Laboratory results as given in PubChem BioAssay (NCI).
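Cultured in 96-well plates, cells were exposed to test compound for 48 hours across five concentrations. TGI marks complete inhibition of growth.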

Assays:
Test in all cases: inhibition of tumour cell growth, NCI panel, 48 h
[1] = tested on: A549 NSCLC
[2] = tested on: SK-MEL-2 melanoma
[3] = tested on: UACC-257 melanoma
[4] = tested on: KM20L2 colon
[5] = tested on: OVCAR-8 ovarian
[6] = tested on: RXF 393 renal
[7] = tested on: SNB-19 CNS
[8] = tested on: SW-620 colon
[9] = tested on: XF 498 CNS
[10] = tested on: LXFL 529 NSCLC
[11] = tested on: ACHN renal
[12] = tested on: HT29 colon
[13] = tested on: DLD-1 colon
[14] = tested on: HL-60(TB) leukemia
[15] = tested on: OVCAR-4 ovarian
[16] = tested on: MALME-3M melanoma
[17] = tested on: SNB-78 CNS
[18] = tested on: DMS 273 small cell lung
[19] = tested on: M14 melanoma
[20] = tested on: NCI-H460 lung
[21] = tested on: HCT-15 colon
[22] = tested on: SF-268 CNS
[23] = tested on: KM12 colon
[24] = tested on: OVCAR-5 ovarian
[25] = tested on: SR leukemia
[26] = tested on: SF-539 CNS
[27] = tested on: TK-10 renal
[28] = tested on: SK-MEL-28 melanoma
[29] = tested on: DMS 114 small cell lung
[30] = tested on: EKVX NSCLC
[31] = tested on: HCC-2998 colon
[32] = tested on: HCT-116 colon
[33] = tested on: A498 renal
[34] = tested on: HOP-92 NSCLC
[35] = tested on: U251 CNS
[36] = tested on: COLO 205 colon
[37] = tested on: SK-MEL-5 melanoma
[38] = tested on: LOX IMVI melanoma
[39] = tested on: SF-295 CNS
[40] = tested on: RPMI-8226 leukemia
[41] = tested on: NCI-H226 lung
[42] = tested on: NCI-H23 lung
[43] = tested on: CAKI-1 renal
[44] = tested on: SNB-75 CNS
[45] = tested on: SN12C renal
[46] = tested on: HOP-18 NSCLC
[47] = tested on: IGROV1 ovarian
[48] = tested on: UO-31 renal
[49] = tested on: K-562 leukemia
[50] = tested on: SK-OV-3 ovarian
[51] = tested on: MOLT-4 leukemia
[52] = tested on: 786-0 renal
[53] = tested on: M19-MEL melanoma
[54] = tested on: OVCAR-3 ovarian
[55] = tested on: UACC-62 melanoma
[56] = tested on: HOP-62 NSCLC
[57] = tested on: CCRF-CEM leukemia
[58] = tested on: NCI-H522 lung

Work on COc1ccc(-c2cc(N3CCN(c4ccc(Cl)cc4)CC3)c(C#N)c(=O)o2)cc1 yielded a TGI [1] of 32.3 µM, a TGI [2] of 45.3 µM and a TGI [3] of 73.1 µM. For the same compound, the TGI [4] was > 100 µM, the TGI [5] was 19.1 µM and the TGI [6] was 17.3 µM. The TGI [7] was 23.8 µM, the TGI [8] was > 100 µM and the TGI [9] was 7.76 µM. The TGI [10] was 70.5 µM, the TGI [11] was 35.2 µM and the TGI [12] was > 100 µM. The TGI [13] was > 100 µM, the TGI [14] was > 100 µM and the TGI [15] was 5.07 µM. For the same compound, the TGI [16] was 22.3 µM, the TGI [17] was 34.2 µM and the TGI [18] was 34.4 µM. For the same compound, the TGI [19] was > 100 µM, the TGI [20] was 28.9 µM and the TGI [21] was > 100 µM. For the same compound, the TGI [22] was 33.5 µM, the TGI [23] was > 100 µM and the TGI [24] was > 100 µM. For the same compound, the TGI [25] was > 100 µM, the TGI [26] was 14.6 µM and the TGI [27] was 37.7 µM. For the same compound, the TGI [28] was 23.3 µM, the TGI [29] was 25.6 µM and the TGI [30] was 41.7 µM. For the same compound, the TGI [31] was > 100 µM, the TGI [32] was 32.7 µM and the TGI [33] was 49.4 µM. For the same compound, the TGI [34] was > 100 µM, the TGI [35] was 58.2 µM and the TGI [36] was > 100 µM. For the same compound, the TGI [37] was 31.3 µM, the TGI [38] was > 100 µM and the TGI [39] was 16.4 µM. It also gave a TGI [40] of 87.9 µM, a TGI [41] of 7.57 µM and a TGI [42] of 88.1 µM. For the same compound, the TGI [43] was 34.2 µM, the TGI [44] was 10.8 µM and the TGI [45] was > 100 µM. The TGI [46] was 44.3 µM, the TGI [47] was 42.4 µM and the TGI [48] was 30.5 µM.
O=C(CCc1n[nH]c(=S)o1)Nc1cc(Cl)ccc1Cl was tested, and the TGI [1] was > 100 µM, the TGI [3] was > 100 µM and the TGI [4] was > 100 µM. For the same compound, the TGI [5] was > 100 µM, the TGI [7] was > 100 µM and the TGI [8] was 32.1 µM. For the same compound, the TGI [10] was > 100 µM, the TGI [11] was > 100 µM and the TGI [12] was > 100 µM. For the same compound, the TGI [13] was > 100 µM, the TGI [14] was 78.9 µM and the TGI [49] was 52.1 µM. For the same compound, the TGI [15] was > 100 µM, the TGI [16] was > 100 µM and the TGI [17] was > 100 µM. For the same compound, the TGI [18] was 36.1 µM, the TGI [19] was > 100 µM and the TGI [20] was > 100 µM. The TGI [21] was 38.8 µM, the TGI [22] was > 100 µM and the TGI [23] was > 100 µM. The TGI [50] was > 100 µM, the TGI [51] was > 100 µM and the TGI [24] was > 100 µM. The TGI [26] was > 100 µM, the TGI [52] was 99.2 µM and the TGI [53] was > 100 µM. The TGI [27] was > 100 µM, the TGI [28] was > 100 µM and the TGI [30] was > 100 µM. For the same compound, the TGI [54] was > 100 µM, the TGI [31] was > 100 µM and the TGI [32] was 30.8 µM. For the same compound, the TGI [55] was > 100 µM, the TGI [33] was > 100 µM and the TGI [34] was > 100 µM. For the same compound, the TGI [35] was > 100 µM, the TGI [36] was > 100 µM and the TGI [37] was > 100 µM. For the same compound, the TGI [56] was > 100 µM, the TGI [39] was > 100 µM and the TGI [40] was 46.3 µM. For the same compound, the TGI [41] was > 100 µM, the TGI [42] was > 100 µM and the TGI [43] was > 100 µM. For the same compound, the TGI [57] was > 100 µM, the TGI [44] was > 100 µM and the TGI [45] was > 100 µM. For the same compound, the TGI [46] was > 100 µM, the TGI [47] was > 100 µM and the TGI [48] was > 100 µM.
For CC(=O)OCC1OC(N2C(=O)[C@@H](Oc3ccccc3)[C@H]2/C=C/c2ccccc2)C(OC(C)=O)C(OC(C)=O)C1OC(C)=O (stereo not given in full), the TGI [1] was > 100 µM, the TGI [2] was > 100 µM and the TGI [3] was > 100 µM. For the same compound, the TGI [4] was > 100 µM, the TGI [5] was > 100 µM and the TGI [6] was > 100 µM. For the same compound, the TGI [7] was > 100 µM, the TGI [8] was > 100 µM and the TGI [9] was > 100 µM. For the same compound, the TGI [10] was > 100 µM, the TGI [11] was > 100 µM and the TGI [12] was > 100 µM. For the same compound, the TGI [13] was > 100 µM, the TGI [14] was > 100 µM and the TGI [49] was > 100 µM. For the same compound, the TGI [15] was > 100 µM, the TGI [16] was > 100 µM and the TGI [17] was > 100 µM. For the same compound, the TGI [18] was > 100 µM, the TGI [19] was > 100 µM and the TGI [20] was > 100 µM. For the same compound, the TGI [21] was > 100 µM, the TGI [22] was > 100 µM and the TGI [50] was > 100 µM. The TGI [51] was > 100 µM, the TGI [24] was > 100 µM and the TGI [25] was > 100 µM. For the same compound, the TGI [26] was > 100 µM, the TGI [52] was > 100 µM and the TGI [53] was > 100 µM. The TGI [27] was > 100 µM, the TGI [28] was > 100 µM and the TGI [29] was > 100 µM. For the same compound, the TGI [30] was > 100 µM, the TGI [54] was > 100 µM and the TGI [31] was > 100 µM. The TGI [32] was > 100 µM, the TGI [55] was > 100 µM and the TGI [33] was > 100 µM. For the same compound, the TGI [34] was > 100 µM, the TGI [35] was > 100 µM and the TGI [36] was > 100 µM. For the same compound, the TGI [37] was > 100 µM, the TGI [38] was > 100 µM and the TGI [56] was > 100 µM. The TGI [39] was > 100 µM, the TGI [40] was > 100 µM and the TGI [41] was > 100 µM. For the same compound, the TGI [42] was > 100 µM, the TGI [57] was > 100 µM and the TGI [58] was > 100 µM. For the same compound, the TGI [44] was 90 µM, the TGI [45] was > 100 µM and the TGI [47] was > 100 µM. The TGI [48] was > 100 µM.
With C[C@@H]1C(=O)CC2C(C)(C)CCC[C@]2(C)[C@@]12CC[C@]1(C=COC1)O2 (stereo not given in full) the TGI [1] was > 100 µM, the TGI [2] was 44.3 µM and the TGI [4] was > 100 µM. For the same compound, the TGI [5] was > 100 µM, the TGI [6] was 56.3 µM and the TGI [7] was > 100 µM. For the same compound, the TGI [8] was > 100 µM, the TGI [11] was > 100 µM and the TGI [12] was > 100 µM. The TGI [14] was 42.3 µM, the TGI [49] was 80.4 µM and the TGI [15] was > 100 µM. For the same compound, the TGI [16] was 79.5 µM, the TGI [17] was > 100 µM and the TGI [18] was > 100 µM. The TGI [19] was > 100 µM, the TGI [20] was > 100 µM and the TGI [21] was > 100 µM. For the same compound, the TGI [22] was > 100 µM, the TGI [23] was > 100 µM and the TGI [50] was 91.7 µM. For the same compound, the TGI [51] was 42.9 µM, the TGI [24] was > 100 µM and the TGI [25] was 59 µM. For the same compound, the TGI [26] was > 100 µM, the TGI [52] was > 100 µM and the TGI [53] was > 100 µM. The TGI [29] was > 100 µM, the TGI [30] was > 100 µM and the TGI [54] was > 100 µM. For the same compound, the TGI [31] was > 100 µM, the TGI [32] was > 100 µM and the TGI [55] was > 100 µM. The TGI [34] was 48 µM, the TGI [36] was > 100 µM and the TGI [38] was > 100 µM. The TGI [56] was > 100 µM, the TGI [39] was > 100 µM and the TGI [41] was > 100 µM. For the same compound, the TGI [43] was > 100 µM, the TGI [57] was 70.8 µM and the TGI [58] was 50 µM. The TGI [45] was 38 µM, the TGI [46] was > 100 µM and the TGI [47] was > 100 µM. The TGI [48] was > 100 µM.
